Experiments:
HepG2 = test: Cytotoxicity against human HepG2 cells assessed as inhibition of cell proliferation incubated for 48 hrs by MTT assay; assay type: functional, cell-based; conditions: HepG2, 48 h
Hep 3B2 [1] = test: Cytotoxicity against human Hep3B cells assessed as inhibition of cell proliferation incubated for 48 hrs by MTT assay; assay type: functional, cell-based
Hep 3B2 [2] = test: Induction of apoptosis in human Hep3B cells assessed as necrotic cells at 3 uM incubated for 48 hrs by Annexin V-FITC/PI staining based flow cytometry analysis (reference value: 6.12%); assay type: functional
Hep 3B2 [3] = test: Induction of apoptosis in human Hep3B cells assessed as viable cells at 3 uM incubated for 48 hrs by Annexin V-FITC/PI staining based flow cytometry analysis (reference value: 87.1%); assay type: functional; conditions: read-out: Activity
Hep 3B2 [4] = test: Induction of apoptosis in human Hep3B cells assessed as late apoptotic cells at 3 uM incubated for 48 hrs by Annexin V-FITC/PI staining based flow cytometry analysis (reference value: […]%); assay type: functional
Hep 3B2 [5] = test: Induction of apoptosis in human Hep3B cells assessed as early apoptotic cells at 3 uM incubated for 48 hrs by Annexin V-FITC/PI staining based flow cytometry analysis (reference value: 1.26%); assay type: functional
Hep 3B2 [6] = test: Induction of apoptosis in human Hep3B cells assessed as viable cells at 3 uM incubated for 48 hrs by Annexin V-FITC/PI staining based flow cytometry analysis (reference value: 95.3%); assay type: functional; conditions: read-out: Activity
Hep 3B2 [7] = test: Induction of apoptosis in human Hep3B cells assessed as necrotic cells at 3 uM incubated for 48 hrs by Annexin V-FITC/PI staining based flow cytometry analysis (reference value: 0%); assay type: functional
Hep 3B2 [8] = test: Induction of apoptosis in human Hep3B cells assessed as late apoptotic cells at 3 uM incubated for 48 hrs by Annexin V-FITC/PI staining based flow cytometry analysis (reference value: 0.117%); assay type: functional
Hep 3B2 [9] = test: Induction of apoptosis in human Hep3B cells assessed as early apoptotic cells at 3 uM incubated for 48 hrs by Annexin V-FITC/PI staining based flow cytometry analysis (reference value: 4.54%); assay type: functional

Row | SMILES | IC50 (HepG2) | IC50 (Hep 3B2 [1]) | further results
1 | CC(C)=CCc1cc([C@H]2Oc3cc(O)ccc3C[C@H]2O)cc(CC=C(C)C)c1O | > 50 µM | > 50 µM | –
2 | CNC(=O)c1cc(Oc2ccc(NC(=O)Nc3ccc(Cl)c(C(F)(F)F)c3)cc2)ccn1 [SORAFENIB] | – | 8.55 µM | –
3 | COc1c(-c2cc(O)c3c(c2)CC(O)C(C)(C)O3)oc2c(CC=C(C)C)c(O)cc(O)c2c1=O (centres undefined) | 49.1 µM | 0.63 µM | Activity (Hep 3B2 [2]): 2.34%; viability at 3 µM (Hep 3B2 [3]): 23.3%; Activity (Hep 3B2 [4]): 52.4%; Activity (Hep 3B2 [5]): 21.9%
4 | COc1c(-c2cc(O)c(O)c(CC=C(C)C)c2)oc2c3c(cc(O)c2c1=O)OC(C(C)(C)O)C3 (centres undefined) | > 50 µM | 3.62 µM | –
5 | COc1c(-c2ccc(O)c(O)c2)oc2c(CC=C(C)C)c(O)c(CC=C(C)C)c(O)c2c1=O | 43.3 µM | 17.7 µM | –
6 | COc1c(-c2ccc(O)c(CC=C(C)C)c2)oc2c(CC=C(C)C)c(O)cc(O)c2c1=O | > 50 µM | 2.31 µM | viability at 3 µM (Hep 3B2 [6]): 51.9%; Activity (Hep 3B2 [7]): 0.097%; Activity (Hep 3B2 [8]): 10.7%; Activity (Hep 3B2 [9]): 37.4%
7 | COc1c(-c2cc(O)c3c(c2)CC(C(C)(C)O)O3)oc2c(CC=C(C)C)c(O)cc(O)c2c1=O (centres undefined) | 47.4 µM | 0.49 µM | Activity (Hep 3B2 [2]): 2.55%; viability at 3 µM (Hep 3B2 [3]): 33.8%; Activity (Hep 3B2 [4]): 48.2%; Activity (Hep 3B2 [5]): 15.4%
8 | CC1(C)Oc2ccc(-c3oc4cc(O)cc(O)c4c(=O)c3O)cc2CC1O (centres undefined) | > 50 µM | 9.55 µM | –
9 | C=C(C)C(O)Cc1cc(-c2oc3c(CC=C(C)C)c(O)cc(O)c3c(=O)c2OC)cc(O)c1O (centres undefined) | > 50 µM | 1.05 µM | Activity (Hep 3B2 [2]): 2.75%; viability at 3 µM (Hep 3B2 [3]): 14.2%; Activity (Hep 3B2 [4]): 76%; Activity (Hep 3B2 [5]): 6.97%
10 | COc1c(-c2ccc(O)c(O)c2)oc2c(C/C=C(\C)CCC=C(C)C)c(O)cc(O)c2c1=O | 30.4 µM | 4.8 µM | –
11 | C=C(C)C(O)Cc1c(O)c(CC=C(C)C)c2oc(-c3ccc(O)c(O)c3)c(OC)c(=O)c2c1O (centres undefined) | > 50 µM | 37.1 µM | –
12 | COc1c(-c2ccc(O)c(O)c2)oc2c(CC=C(C)C)c(O)cc(O)c2c1=O | > 50 µM | 2.39 µM | –
13 | COc1c(-c2ccc(O)c(O)c2)oc2c3c(c(CC=C(C)C)c(O)c2c1=O)OC(C(C)(C)O)C3 (centres undefined) | 26.9 µM | 8.89 µM | –
14 | COc1c(-c2cc3c(c(O)c2CC=C(C)C)OC(C)(C)C=C3)oc2c(CC=C(C)C)c(O)cc(O)c2c1=O | 30.7 µM | 6.37 µM | –
15 | CC1(C)C=Cc2cc(-c3oc4cc(O)cc(O)c4c(=O)c3O)cc(O)c2O1 | > 50 µM | 28.2 µM | –
16 | CC(C)=CCc1cc([C@H]2Oc3c(CC=C(C)C)c(O)cc(O)c3C(=O)[C@@H]2O)cc(CC=C(C)C)c1O | > 50 µM | > 50 µM | –
17 | COc1c(-c2ccc(O)c(CC=C(C)C)c2)oc2cc(O)cc(O)c2c1=O | 50.5 µM | 0.99 µM | Activity (Hep 3B2 [2]): 2.29%; viability at 3 µM (Hep 3B2 [3]): 87.1%; Activity (Hep 3B2 [4]): 8.68%; Activity (Hep 3B2 [5]): 1.97%
18 | CC(C)=CCc1cc(-c2oc3cc(O)cc(O)c3c(=O)c2O)ccc1O [ISOLICOFLAVONOL] | 44.7 µM | 11.5 µM | –
19 | COC1=C(c2ccc(O)cc2)Oc2c(CC=C(C)C)c(O)cc(O)c2C1O (centres undefined) | 13.6 µM | 3.96 µM | –
20 | CC(C)=CCc1cc(-c2oc3c(CC=C(C)C)c(O)cc(O)c3c(=O)c2O)ccc1O [BROUSSOFLAVONOL F] | 30.8 µM | 1.15 µM | viability at 3 µM (Hep 3B2 [6]): 55.1%; Activity (Hep 3B2 [7]): 0.251%; Activity (Hep 3B2 [8]): 25.5%; Activity (Hep 3B2 [9]): 19.1%
21 | COc1c(-c2cc(O)c(O)c(CC=C(C)C)c2CC=C(C)C)oc2cc(O)cc(O)c2c1=O | 39.1 µM | 33.5 µM | –
22 | C=C(C)C(O)Cc1cc(-c2oc3c(CC=C(C)C)c(O)cc(O)c3c(=O)c2OC)ccc1O (centres undefined) | 42.2 µM | 0.41 µM | Activity (Hep 3B2 [2]): 0.923%; viability at 3 µM (Hep 3B2 [3]): 59.7%; Activity (Hep 3B2 [4]): 19.7%; Activity (Hep 3B2 [5]): 19.6%
23 | CC(C)=CCc1cc([C@@H]2Oc3c(CC=C(C)C)c(O)cc(O)c3C(=O)[C@H]2O)cc(CC=C(C)C)c1O | > 50 µM | > 50 µM | –
24 | COc1c(-c2cc(O)c(O)c(CC=C(C)C)c2)oc2c(CC=C(C)C)c(O)cc(O)c2c1=O | 32.6 µM | 1.07 µM | viability at 3 µM (Hep 3B2 [6]): 49.3%; Activity (Hep 3B2 [7]): 0.121%; Activity (Hep 3B2 [8]): 9.35%; Activity (Hep 3B2 [9]): 41.2%

Source: ChEMBL document CHEMBL5352479, “Prenylated flavonoids with significant anti-hepatoma activity from Daphne giraldii and effects on Fibroblast Growth Factor Receptor 1 (FGFR1)” (Eur J Med Chem, 2023)
